Data set [1] deals with Ileum. Kind of data set: Induction of guinea pig ileum contraction. Format: functional, tissue-based. To be noted: Cavia porcellus.
Data set [2] can be described thus: Tremorgenic activity in ip dosed mouse. Format: ADME, organism-based. To be noted: in vivo.
For data set [3], the system named is Ileum. Kind of data set: Induction of electrically-stimulated guinea pig ileum contraction at 10 ng/ml relative to control in presence of acetylcholine. Format: functional, Cavia porcellus.
Data set [4] relates to Ileum. Description: Induction of electrically-stimulated guinea pig ileum contraction at 100 ng/ml relative to control in presence of acetylcholine. The format is functional, Cavia porcellus.
In data set [5] the test system is Ileum. Description: Induction of electrically-stimulated guinea pig ileum contraction at 1 ug/ml relative to control in presence of acetylcholine. Format: functional, Cavia porcellus.
Data set [6] concerns Ileum. Kind of data set: Induction of electrically-stimulated guinea pig ileum twitch contraction at 10 ng/ml relative to control in presence of hyoscine. Format: functional, Cavia porcellus.
The subject of data set [7] is Ileum. Kind of data set: Induction of electrically-stimulated guinea pig ileum twitch contraction at 100 ng/ml relative to control in presence of hyoscine. The format is functional, Cavia porcellus.
Data set [8] has as its system Ileum. Kind of data set: Induction of electrically-stimulated guinea pig ileum twitch contraction at 1 ug/ml relative to control in presence of hyoscine. The format is functional, Cavia porcellus.
Data set [9] deals with Ileum. Kind of data set: Induction of electrically-stimulated guinea pig ileum twitch contraction at 10 ng/ml. Format: functional, tissue-based. The conditions noted are these: Cavia porcellus.

Calls of active or inactive are those of the source. No cut-off for these calls is given here.

As for `CC(C)(O)[C@H]1O[C@H]2CC[C@@]3(C)[C@@](O)(CC[C@H]4Cc5c([nH]c6ccccc56)[C@@]43C)C2=CC1=O` [PAXILLINE], the Activity result in the data set with Ileum [1] is “Dose-dependent effect”; with Ileum [3], 121%; with Ileum [4] it was 118%; with Ileum [5], 126%; with Ileum [6] it was 9%; in the data set on Ileum [7], 11%. Besides, in the data set with Ileum [8], the Activity was 2%. The ED50 in [2] was determined as 25 mg/kg.

Regarding `C=C1Cc2ccc3[nH]c4c5c3c2[C@H]2[C@@H]1C[C@@H]2C(C)(C)O[C@H]5[C@@H]1CC[C@@]2(O)[C@@]35O[C@@H]3[C@@H](O)[C@@H](C(=C)C)O[C@H]5CC[C@]2(C)[C@@]41C` [PENITREM B], the 50% effect level in data set [2] (ED50) was put at a dose of 5 mg/kg. Moreover, the Activity with Ileum [3] came out at 111%; in the data set on Ileum [4] it was 96%; in the data set with Ileum [5], 117%; in the data set on Ileum [6], 12%; in the data set on Ileum [7], 10%; with Ileum [8], 10%.

For `COc1ccc2c3c4n(c2c1)[C@H](C=C(C)C)OOC(C)(C)C[C@@H]4N1C(=O)[C@@H]2CCCN2C(=O)[C@]1(O)[C@H]3O` [VERRUCULOGEN], the Activity entry was “Dose-dependent effect” with Ileum [1]; 127% with Ileum [3]; 123% in the data set on Ileum [4]; 109% in the data set on Ileum [5]; 7% in the data set on Ileum [6]; 11% in the data set on Ileum [7]. In addition, in the data set on Ileum [8], the Activity turned out to be 14%. Besides, the outcome with Ileum [9] was Active. The 50% effect level in data set [2] (ED50) was put at a dose of 0.39 mg/kg.

Values taken from ChEMBL document CHEMBL1158938, “In vitro effects of tremorgenic mycotoxins” (J Nat Prod, 1991).
